Here are results for 1 molecule from patent US20230372542A1, “COMPOSITION AND METHODS FOR MODULATING TCF4 GENE EXPESSION AND TREATING PITT HOPKINS SYNDROME” (The Regents of the University of California, priority 2020, published 2023).

Holding throughout (format): cell-based, human
Assay [1] relates to NPCs. In words: NPC proliferation (live cell count, EdU) after Wnt signaling manipulation. The protocol:
Proliferation and apoptosis assays.
(§1) Wnt signaling manipulation. For manipulating the Wnt/β-catenin signaling pathway in NPCs, 200,000 cells were seeded on a 6-well plate, followed by treatment with specific agonist CHIR99021 (1 μM) for 4 days. Controls were treated with DMSO (CHIR diluent) at the same concentration and for the same duration. […] In all cases, treated cells were assayed to measure activity of the Wnt pathway via transfection with the TOP-Flash plasmids described herein.

The test system of assay [2] is NPCs. In words: RT-qPCR gene expression in NPCs after Wnt signaling manipulation. The procedure: Real time quantitative PCR. Total RNA was extracted using RNeasy Mini Plus kit (Qiagen), followed by DNase I treatment on the column, as per the manufacturer's recommendations. Two and a half micrograms of total RNA were reverse transcribed into cDNA using the Superscript III First-Strand Reverse Transcription System (Thermo Fisher Scientific). Real-time quantitative PCR (RT-qPCR) was performed using pre-validated FAM-MGB TaqMan probes (Thermo Fisher Scientific) and the TaqMan universal master mix II without UNG (Thermo Fisher Scientific) on a CFX Connect Real Time PCR detection system (Bio-Rad), with the following cycling parameters: 94° C. for 3 min, followed by 40 cycles of 94° C. for 30 s and 68° C. for 1 min. Amplification and denaturation curves for all probes were analyzed to verify amplification of just one amplicon. All RT-qPCR analyses were conducted using RNA extracted from at least 3 independent biological samples per subject/condition, and normalized to the following endogenous control genes (TBP, ACTB, and GAPDH). Relative expression was calculated using the traditional ΔΔCt method.
as §1
For orientation: In qPCR the cycle at which signal appears reflects the starting amount.

The subject of assay [3] is Wnt/β-catenin signaling pathway. In words: TOP-Flash luciferase reporter Wnt functional assay in NPCs. The following applies: PTHS NPCs; CHIR99021 (FIG. 16D). From the text: TOP-Flash luciferase reporter Wnt functional assay. For assessing levels of Wnt signaling, 70% confluent cultures of NPCs in 24-well plates (with Neural Progenitor Medium from StemCell Technologies) were transfected with the M50 Super 8×TOPFlash plasmid (Addgene #12456; [http:/]/n2t.net/addgene:12456; RRID:Addgene_12456; referred to as TOP-Flash luciferase reporter plasmid), which is used to assess β-catenin-mediated transcriptional activation. This plasmid contains a minimal TA viral promoter driving the expression of a firefly luciferase gene preceded by seven binding sites ([…]; SEQ ID NO:1) for TCF/LEF (Veeman et al., 2003), not to be confused with TCF4. Control NPCs were transfected with M51 Super8×TOPflash plasmids, which have mutant TCF/LEF binding sites (Addgene plasmid #12457; [http:/]/n2t.net/addgene:12457; RRID:Addgene_12457).
Transfection was performed using the Amaxa Nucleofaction Mouse Neural Stem Cell Nucleofector kit for NPCs (Lonza), using the manufacturer's recommendations. After 24 h, medium was replenished and the luciferase assay was performed using the Pierce Firefly Luciferase Flash Assay Kit (Thermo Fisher Scientific) on a sample of 50,000 cells, using a Synergy microplate reader (BioTek Instruments). […] Activity levels were expressed as arbitrary units normalized against the mean activity in the respective controls. […]
A general note: A reporter such as luciferase makes a cellular process visible.

Assay [4] relates to NPCs. Briefly: p16INK4a+ (senescent) cells in NPCs treated with CHIR99021. The settings on record: PTHS NPCs. The protocol: For immunofluorescence labeling of NPCs, these cells were seeded at a density of 50,000 cells per well of a LabTek II 8-well chambered slide. When cells reached 50% confluency, they were fixed and processed for immunostaining in the same manner as described for iPSC colonies, with the following primary antibodies: rabbit anti-TCF4 (Abcam; ab217668; 1:1000); and chicken anti-vimentin (VIM) (Abcam; ab22651; 1:2000). NPCs were also stained to detect senescence associated P-galactosidase (SA-P-gal), using the CellEvent™ Senescence Green Detection Kit (Thermo Fisher Scientific; C10850) after antigen retrieval as described above. The same method described above for counting weakly and strongly stained SOX2+ cells after p16^INK4a co-staining was applied to NPCs.
Wnt signaling manipulation. For manipulating the Wnt/β-catenin signaling pathway in NPCs, 200,000 cells were seeded on a 6-well plate, followed by treatment with specific agonist CHIR99021 (1 μM) for 4 days. Controls were treated with DMSO (CHIR diluent) at the same concentration and for the same duration. […] In all cases, treated cells were assayed to measure activity of the Wnt pathway via transfection with the TOP-Flash plasmids described herein. For all experiments, 3 biological replicates were used per subject line, and similar results were obtained in at least 3 independent experiments.

Where [5] appears, read: PTHS NPCs in 2D culture, CHIR (FIG. 16K).

As to `Cc1c[nH]c(-c2cnc(NCCNc3ccc(C#N)cn3)nc2-c2ccc(Cl)cc2Cl)n1` [CHIR99021], the proliferation rates entry in assay [1] (PTHS NPCs, CHIR99021 1 μM, 4 days (FIGS. 9G-H)) was “rescued the proliferation rates”. Further, the proliferation result in assay [1] (parent NPCs in 2D culture, CHIR (FIGS. 9G-H)) is reported as “does not lead to increased proliferation”. Besides, the PCDH15 expression entry in assay [2] (NPCs, CHIR99021 (FIG. 16N)) is “further reduces its expression”. Further, in assay [2] (setting [5]), the “expression of TCF4” value is given as “increased” and the “expression of TCF4 downstream targets (GADD45G)” value was “increased”. In assay [2] (PTHS NPCs, CHIR99021 (FIG. 9J)), the “expression of pro-proliferative gene HES1” value was “increased the expression”, the “expression of proneural gene ASCL1” value is listed as “increased the expression” and the “expression of proneural gene NEUROD1” value is “increased the expression”. Besides, the SOX3 expression result in assay [2] (PTHS progenitors, CHIR99021 (FIG. 10F)) is “increased SOX3 expression”. The “Wnt signaling activity (TOP-Flash)” value in assay [3] is on record as “increased”. The “percentage of p16INK4a senescent cells” value in assay [4] is “decreased the percentage”.
